Reference: patent US20250249056A1, “CANCER THERAPIES COMPRISING A NUCLEAR EXPORT INHIBITOR AND AN ONCOLYTIC VIRUS” (priority 2022, published 2025)
Entries after “also recorded” stand apart in the source; their conditions may differ.

Assays:
PANC-1 cells = experiment: Click-iT EdU cell proliferation assay; assay type: cell-based, human; settings: PANC-1 cells treated for 24 hours; selinexor or MYXV
Procedure: Selinexor was previously reported to reduce the proliferation of cancer cells, however, viral infection also stops cell proliferation (Zheng, Y., et al., 2014, Cancer Chemotherapy and Pharmacology, 74:487-495; Johnston, J. B., et al., 2005, Journal of Virology, 79:10750-10763). As such, the effect of selinexor and MYXV on human cancer cells was examined alone and in combination. To this end, two cell proliferation assays were performed. In the first methods, DNA synthesis was measured by the incorporation of EdU (5-ethynyl-2′-deoxyuridine), a nucleoside analog of thymidine, into DNA during active DNA synthesis (FIG. 4A) (Chehrehasa F., et al., 2009, Journal of Neuroscience Methods, 177:122-130). Using this method in uninfected PANC-1 cells, EdU incorporation was detected in more than 50% of dividing cells (FIG. 4B and FIG. 4C). When cells were treated with selinexor or MYXV for 24 hours, on the other hand, a significant reduction in proliferation was observed (20% EdU-positive cells). […]
Click-iT EdU Cell Proliferation Assay: To visualize and measure cell proliferation, a Click-iT™ EdU cell proliferation assay (Thermo Fisher) was used according to the manufacturer's instructions. […] Fluorescence images were obtained using a fluorescence microscope and fluorescence signals were analyzed using ImageJ software.

Colo205 cells = experiment: CyQUANT NF cell proliferation assay (Colo205); assay type: cell-based, human; settings: after 24 hours compared to mock treated cells, selinexor 0.1 or 1 μM, multiple MOI
Procedure: Cell Proliferation Assay: To measure cancer cell proliferation based on the amount of cellular DNA, the CyQuant™ NF Cell Proliferation Assay Kit (Invitrogen) was used according to the manufacturer's instructions. Briefly, PANC-1, HT29, MDA-MB435, and Colo205 cells were seeded in a 96-well plate (1×10^4 cells/well) and left to attach to the wells overnight. The next day, the medium was removed and replaced with 50 μL medium containing different concentrations of selinexor (0-1 μM). After an hour of incubation with selinexor, the virus was added to different MOIs (0.5-5), bringing the end volume of every well up to 100 μL. A 1× dye binding solution was prepared by adding 9 μL of the CyQuant™ NF Dye reagent in 4.5 mL Hank's Balanced Salt Solution (HBSS) buffer (Invitrogen). After 24, 48, 72, and 96 hours of incubation, the medium was removed from the cells and 50 μL 1× dye solution was added to all wells. The microplate was covered to protect it from light and was incubated for 30-60 minutes in a 5% CO2 incubator at 37° C. Subsequently, cell proliferation was quantified by measuring fluorescence with an excitation of 485 nm and emission of 530 nm in a VarioSkan Lux Microplate reader (Thermo Fisher). All experiments were performed in quadruple and normalized to mock-treated cells.

[1] = test system: PANC-1, Colo205, HT29, and MDMB435 cells; experiment: Cell viability assay (MTS); assay type: cell-based, human
Procedure: To further assess the inhibition of cell proliferation, and investigate if cell death is enhanced, cell viability assays were performed using an MTS assay to detect metabolic activity in active cells. For this assay, PANC-1 (FIG. 5A through FIG. 5D), Colo205 (FIG. 5E through FIG. 5H), HT29, and MDMB435 cells were treated with different concentrations of selinexor, infected with MYXB at different MOIs, or treated with a combination of selinexor and MYXB, and cell viability was measured at different time points.
Cell Viability Assay: To assess the viability of different human cancer cells after selinexor treatment or MYXV infection, 10,000 cells were seeded into each well of a 96-well plate. The next day, cells were treated with different concentrations of selinexor, infected with different MOIs of MYXV, or treated with different concentrations of selinexor for 1 hour followed by infection with different MOIs of MYXV. A minimum of four wells were used for each treatment condition, and untreated cells (mock) served as controls. Cell viability was assessed at 24, 48, 72, and 96 hours using an MTS assay.

PANC-1 xenograft tumors = experiment: PANC-1 xenograft tumor model in NSG mice; assay type: in vivo
Procedure: Based on the in vivo results showing selinexor enhances MYXV replication in the tumor bed and reduces the tumor burden in Colo205 and HT29 xenograft tumors, the treatment was examined in PANC-1 xenograft tumors. Human PANC-1 cells were injected subcutaneously on both sides of the flank to generate tumors (FIG. 11A). After the tumor size reached ˜50-100 mm^3 (2-3 weeks), animals were randomly assigned to treatment groups to have approximately equal average tumor size. Animals (n=6) were then treated with PBS, selinexor, MYXV, or selinexor+MYXV. Animals received a total of four treatments within the first two weeks and tumor burden was measured 2-3 times every week. After the first treatment, mice were imaged using the IVIS system for luciferase expression at 24 and 72 hours post-treatment (FIG. 11B and FIG. 11C). […] After imaging and measuring luciferase signals, three additional treatments to test their therapeutic effect on tumor burden and survival were administered.
Luciferase signals in animals were also measured before the endpoint to confirm the presence of the virus in the tumor bed after the final (fourth) injection. […] Luciferase signal was measured again 23 days after the last viral injection, at which point high luciferase activity was still observed in each group (FIG. 13C). At the endpoint, tumors were collected and virus titration assays were performed (FIG. 13D). […] In both tumors, although not significant, viral load was higher in selinexor+MYXV treated mice than mice treated with MYXV alone.
Animal Studies: Male and female NSG mice were purchased from Jackson laboratory at 6-8 weeks of age. Animals were housed under sterile conditions. The animals were acclimatized for at least seven days before tumor implantation or any experimental procedures. Cells (1×10^6/mouse in 100 μL PBS) were subcutaneously injected into the flanks of NSG mice. […] Tumor volume was measured two or three times per week as follows: volume=(length×width^2)/2. […]

O=C(/C=C\n1cnc(-c2cc(C(F)(F)F)cc(C(F)(F)F)c2)n1)NNc1cnccn1 [selinexor]
EdU-positive cells (PANC-1 cells): 20% | cell proliferation (DNA content) (Colo205 cells): significant reductions in cell proliferation | cell viability ([1]; selinexor 0.5 μM or 1 μM, over time, all cells tested): 50% | cell viability ([1]; selinexor alone 0.1 μM or 0.05 μM): no effect on cell viability; also recorded: almost no effect | luciferase signals (IVIS) vs virus alone (PANC-1 xenograft tumors; 24 and 72 hours after first treatment): significantly higher levels of luciferase signals | tumor burden compared to PBS or MYXV alone (PANC-1 xenograft tumors; four treatments within first two weeks): significant reduction in tumor burden | survival compared to PBS or MYXV alone (PANC-1 xenograft tumors; mouse, in vivo): survived significantly longer
